11 molecules from ChEMBL document CHEMBL1201862, “PubChem BioAssay data set” (2004) can be followed below.

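In this assay, cells in 96-well plates receive the compound at five concentrations for 48 hours. Endpoints are linearly interpolated between the surrounding concentrations. GI50 marks 50% less growth.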 Activity calls are given as the source filed them. No stated cut-off is given here; in the data, active = GI50 up to about 1.1 µM and inactive = higher. A value given as a limit tells only on which side of the number the result lay.

Test systems include U-251; NCI/ADR-RES; CCRF-CEM; HOP-92; HCT-116; SK-MEL-5; NCI-H226; HCT-15; OVCAR-3; HCC 2998; RPMI-8226; IGROV-1; SK-MEL-2; SNB-19; UACC-62; SF-268; SF-295; MDA-MB-435; ACHN; 786-0.
Common to all, as to experiment: growth of human tumour cells (NCI), 48 h

As for `CC1=C(O)C(=O)[C@@H]2O[C@@H]2C1=O`, the GI50 in the experiment with U-251 is 19.4 µM (inactive); with NCI/ADR-RES it was 10.7 µM (inactive); in the experiment on CCRF-CEM it was 1.6 µM (inactive); with HOP-92, 5.57 µM (inactive); with HCT-116, 7.36 µM (inactive); with SK-MEL-5, 16.1 µM (inactive). The GI50 is 14.5 µM (inactive) in the experiment on NCI-H226; 7.01 µM with HCT-15; 6.5 µM (inactive) in the experiment on OVCAR-3; 15.2 µM (inactive) with HCC 2998; 3.46 µM (inactive) with RPMI-8226; 20.1 µM (inactive) in the experiment on IGROV-1. The GI50 is 16 µM (inactive) in the experiment on SK-MEL-2; 32.8 µM (inactive) in the experiment with SNB-19; 8.49 µM (inactive) with UACC-62; 14.2 µM (inactive) in the experiment with SF-268; 28.2 µM (inactive) in the experiment on SF-295.

As to `COC1OC2COC(c3ccccc3)OC2C(O)C1OC(=S)c1ccccc1` (stereo not given), the GI50 was 0.188 µM (active) with U-251; 36.6 µM (inactive) with NCI/ADR-RES; 19.9 µM (inactive) in the experiment on CCRF-CEM; > 100 µM (inactive) in the experiment on HOP-92; 23 µM (inactive) in the experiment with SK-MEL-5; 46.1 µM (inactive) in the experiment with NCI-H226. The GI50 in the experiment with HCT-15 was 28.4 µM; with OVCAR-3, 34.8 µM (inactive); in the experiment with RPMI-8226, 15.5 µM (inactive); in the experiment on IGROV-1 it was 32.4 µM (inactive); with SK-MEL-2, 53.3 µM (inactive); with SNB-19, > 100 µM (inactive). The GI50 with MDA-MB-435 was 1.31 µM (inactive); in the experiment with UACC-62 it was 31 µM (inactive); in the experiment with SF-268, > 100 µM (inactive); in the experiment with SF-295, 39.3 µM (inactive); with ACHN, 24.3 µM (inactive).

As to `N#CC(OC1OC(COC2OC(CO)C(O)C(O)C2O)C(O)C(O)C1O)c1ccccc1` (stereo not given), the GI50 in the experiment with U-251, in the experiment with NCI/ADR-RES, in the experiment on CCRF-CEM, with HOP-92, in the experiment on HCT-116 and with SK-MEL-5 was > 225 µM (inactive) throughout. In addition, the GI50 with NCI-H226 was > 225 µM (inactive); with HCT-15, greater than 225 µM; in the experiment with OVCAR-3, > 225 µM (inactive); with HCC 2998 it was > 225 µM (inactive); in the experiment on RPMI-8226 it was > 225 µM (inactive); in the experiment with IGROV-1, > 225 µM (inactive). In addition, the GI50 in the experiment with SK-MEL-2, in the experiment with SNB-19, in the experiment with UACC-62, with SF-268 and in the experiment on SF-295 was > 225 µM (inactive) throughout.

Turning to `C/C(=C1/N=C(c2ccccc2)OC1=O)c1ccccc1`, the GI50 with 786-0 was > 100 µM (inactive); in the experiment on U-251 it was > 100 µM (inactive); in the experiment on CCRF-CEM it was 33.4 µM (inactive); with HOP-92 it was > 100 µM (inactive); in the experiment with HCT-116, > 100 µM (inactive); with SK-MEL-5, > 100 µM (inactive). Moreover, the GI50 in the experiment on NCI-H226 is > 100 µM (inactive); in the experiment with HCT-15, 99.1 µM; with OVCAR-3 it was 74.5 µM (inactive); with HCC 2998 it was > 100 µM (inactive); in the experiment on RPMI-8226, 23.3 µM (inactive); in the experiment with IGROV-1, 68.2 µM (inactive). The GI50 with SK-MEL-2 is > 100 µM (inactive); in the experiment on SNB-19, > 100 µM (inactive); in the experiment on MDA-MB-435 it was 87.3 µM (inactive); with UACC-62 it was > 100 µM (inactive); in the experiment with SF-268, > 100 µM (inactive); with SF-295, 76.2 µM (inactive). Besides, the GI50 in the experiment on ACHN is 74.6 µM (inactive).

With `COc1cc(Nc2cnc3cc(F)c(F)cc3n2)cc(OC)c1OC`, the GI50 with 786-0, with U-251, in the experiment with NCI/ADR-RES, in the experiment with CCRF-CEM, in the experiment with HOP-92 and with HCT-116 was > 100 µM (inactive) throughout. Besides, the GI50 was > 100 µM (inactive) in the experiment on SK-MEL-5; > 100 µM (inactive) in the experiment with NCI-H226; greater than 100 µM in the experiment on HCT-15; > 100 µM (inactive) in the experiment on OVCAR-3; > 100 µM (inactive) in the experiment on IGROV-1; 84.3 µM (inactive) with SK-MEL-2. In addition, the GI50 with SNB-19, in the experiment on MDA-MB-435, in the experiment with UACC-62, in the experiment on SF-268, in the experiment with SF-295 and in the experiment with ACHN was > 100 µM (inactive) throughout.

Take `CC(Cc1ccc(Cl)cc1Cl)NO` (stereo not given): the GI50 was > 100 µM (inactive) in the experiment with 786-0; > 100 µM (inactive) in the experiment on U-251; > 100 µM (inactive) with NCI/ADR-RES; > 100 µM (inactive) in the experiment with CCRF-CEM; 83.6 µM (inactive) in the experiment on HCT-116; 95.7 µM (inactive) in the experiment with SK-MEL-5. In addition, the GI50 in the experiment on NCI-H226 is 46.3 µM (inactive); in the experiment with HCT-15, greater than 100 µM; with OVCAR-3 it was > 100 µM (inactive); in the experiment with RPMI-8226, 78 µM (inactive); in the experiment with IGROV-1 it was > 100 µM (inactive); in the experiment on SK-MEL-2 it was > 100 µM (inactive). Moreover, the GI50 with SNB-19, in the experiment on MDA-MB-435, in the experiment on UACC-62, with SF-268, in the experiment with SF-295 and with ACHN was > 100 µM (inactive) throughout.

For the molecule `CC(=O)OCC1(CNc2nc(N)ncc2C#N)CC(CCc2ccccc2)C1` (stereo not given), the GI50 in the experiment on 786-0 is 40.4 µM (inactive); with U-251 it was 31.3 µM (inactive); with NCI/ADR-RES, 10.3 µM (inactive); with CCRF-CEM it was 57 µM (inactive); with HOP-92, 2.45 µM (inactive); with HCT-116, 5.43 µM (inactive). Besides, the GI50 is 1.62 µM (inactive) in the experiment on SK-MEL-5; 42 µM (inactive) in the experiment on NCI-H226; greater than 100 µM with HCT-15; 21.4 µM (inactive) with IGROV-1; > 100 µM (inactive) in the experiment with SK-MEL-2; 26.2 µM (inactive) in the experiment on MDA-MB-435. Further, the GI50 in the experiment with UACC-62 was 46 µM (inactive); in the experiment with SF-268 it was > 100 µM (inactive); with SF-295, 7.66 µM (inactive); in the experiment with ACHN, 28.4 µM (inactive).

Consider `CC1CC2=C(C1)C(C1(C)C(=O)CC3C(C1=O)C3(C)C)C(C)C2=O` (stereo not given), for which the GI50 in the experiment on 786-0, with U-251, in the experiment on CCRF-CEM, in the experiment on HOP-92, with HCT-116 and with SK-MEL-5 was > 100 µM (inactive) throughout. The GI50 in the experiment on NCI-H226 was > 100 µM (inactive); with HCT-15 it was greater than 100 µM; in the experiment with OVCAR-3 it was > 100 µM (inactive); with HCC 2998, > 100 µM (inactive); with RPMI-8226, > 100 µM (inactive); with IGROV-1 it was > 100 µM (inactive). Further, the GI50 in the experiment on SK-MEL-2, with SNB-19, in the experiment on MDA-MB-435, in the experiment with UACC-62, in the experiment with SF-268 and in the experiment with SF-295 was > 100 µM (inactive) in each case. Moreover, the GI50 with ACHN was > 100 µM (inactive).

As to `COc1ccc2c(O)c1-c1c(OC)ccc(c1O)SSc1ccc(OC)c(c1O)-c1c(OC)ccc(c1O)SS2`, the GI50 in the experiment with 786-0 is 40.6 µM (inactive); with U-251 it was 19.2 µM (inactive); in the experiment on CCRF-CEM, 4.56 µM (inactive); in the experiment on HOP-92, 23 µM (inactive); in the experiment on HCT-116, 48.2 µM (inactive); in the experiment on SK-MEL-5, 30 µM (inactive). Further, the GI50 is 29.9 µM (inactive) with NCI-H226; 20.6 µM (inactive) in the experiment on OVCAR-3; 1.99 µM (inactive) with RPMI-8226; 23 µM (inactive) in the experiment with IGROV-1; > 100 µM (inactive) in the experiment on SK-MEL-2; 60.4 µM (inactive) in the experiment with SNB-19. Further, the GI50 in the experiment with MDA-MB-435 is > 100 µM (inactive); in the experiment with SF-268, 27.4 µM (inactive); with SF-295, > 100 µM (inactive); with ACHN, 5.32 µM (inactive).

With `Brc1ccc(/N=N/N2CCCCC2)cc1`, the GI50 with 786-0 was 44.3 µM (inactive); with U-251 it was 54 µM (inactive); in the experiment on NCI/ADR-RES, 51.3 µM (inactive); in the experiment with CCRF-CEM, 22.2 µM (inactive); in the experiment with HOP-92, 33.6 µM (inactive); in the experiment on HCT-116, 34.2 µM (inactive). For the same molecule, the GI50 was 34.5 µM (inactive) in the experiment with SK-MEL-5; > 100 µM (inactive) in the experiment with NCI-H226; 27.5 µM in the experiment on HCT-15; 42.1 µM (inactive) with OVCAR-3; 14.1 µM (inactive) in the experiment with RPMI-8226; 44.6 µM (inactive) in the experiment with IGROV-1. In addition, the GI50 in the experiment with SK-MEL-2 was 20.3 µM (inactive); in the experiment with SNB-19, > 100 µM (inactive); with MDA-MB-435, 34.3 µM (inactive); in the experiment on UACC-62, 72.9 µM (inactive); with SF-268 it was 66.1 µM (inactive); with SF-295, 35.6 µM (inactive). The GI50 with ACHN is 76.6 µM (inactive).

Consider `Cc1c(-c2ccc(-c3ccccc3F)cc2)nc2ccc(F)cc2c1C(=O)O` [BREQUINAR SODIUM], for which the GI50 is 0.195 µM (active) in the experiment on 786-0; 0.194 µM (active) in the experiment on U-251; 2.18 µM (inactive) with NCI/ADR-RES; 0.284 µM (active) in the experiment on CCRF-CEM; 35.2 µM (inactive) in the experiment on HOP-92; 0.104 µM (active) in the experiment on HCT-116. Besides, the GI50 in the experiment on SK-MEL-5 was 1.39 µM (inactive); with NCI-H226 it was 19.5 µM (inactive); in the experiment on HCT-15 it was 0.0566 µM; in the experiment on OVCAR-3 it was 3.74 µM (inactive); in the experiment with HCC 2998, 9.62 µM (inactive); in the experiment with RPMI-8226, 0.373 µM (active). For the same molecule, the GI50 was 0.303 µM (active) with IGROV-1; 61.8 µM (inactive) in the experiment on SK-MEL-2; 1.25 µM (inactive) with SNB-19; 0.265 µM (active) with UACC-62; 0.372 µM (active) in the experiment on SF-268; 0.243 µM (active) in the experiment with SF-295. For the same molecule, the GI50 with ACHN is 0.153 µM (active).
